Measured values as given in US12150940B2, “WASp-protecting small molecules, compositions, methods and uses thereof in the treatment of innate and acquired immune-related disorders or conditions” (BAR ILAN UNIVERSITY, priority 2016, dated 2024).
Peptide text beside a SMILES is read from it. * marks the point of attachment. Cbz = O=C(OCc1ccccc1)*

Legend:
WASp = WASp ubiquitylation in Meg-01 cells (immunoprecipitation, anti-ubiquitin blot); assay type: cell-based, human; conditions: Meg-01 cells after activation, treated vs untreated
Description: Freshly-isolated platelets were stimulated with 10 μM of TRAP-6 for the indicated time points, followed by lysis. WIP (FIG. 7A) or WASp (FIG. 7B) were immunoprecipitated from the lysates and analyzed by western blot for co-immunoprecipitation, using anti-WASp, anti-WIP or anti-PKCθ antibodies. WASp immunoprecipitates were immunoblotted for WASp ubiquitylation using anti-ubiquitin (Ub) antibody (FIG. 7C). Ubiquitylated WASp appears as a smear of bands above the MW of 65 kDa with a prominent band at ˜81 kDa. […] Blots are representative of three independent experiments. Meg-01 megakaryocyte cell line was activated in the presence (+) or absence (−) of MG132, followed by lysis (FIG. 7E). WASp ubiquitylation was determined by co-immunoprecipitation analysis as in FIG. 7C. […] PKCθ and WASp protein expression levels were analyzed by western blot with anti-PKCθ and anti-WASp antibodies, and with anti-GAPDH as loading control. Relative protein expression was determined by densitometric analysis and is presented below the corresponding lanes. […]
Insufficient WASp expression in platelets and megakaryocytes is the cause of microthrombocytopenia of WAS/XLT patients (Albert et al 2010, Lutskiy et al, 2007). […] Similarly, reciprocal co-precipitation was detected between WASp and WIP during the first two minutes of activation when WASp was immunoprecipitated (FIG. 7B). […]

WAS−/− Jurkat T-cells = experiment: Lymphocyte migration on ICAM-1/SDF-1α, WAS−/− cells; assay type: cell-based, human
Description: WASp knockout Jurkat T-cell lines that express only exogenous YFP-WASp R86C (WAS^−/−/WASp R86C) or Y107C (WAS^−/−/WASp Y107C) were pretreated with SMC #34 in comparison to cells treated with the control. Cells that completely lack WASp expression (WAS^−/−) were also treated with the control. Cellular migration was tracked over a 20-min period on ICAM-1/SDF-1α-coated cover glasses, as described in Experimental procedures.
Approximately 1×10^5 lymphocytes were seeded over chambered coverslips (LabTek) pre-coated with 6 μg/ml ICAM-1 and 2 μg/ml SDF-1α. Cells were incubated at 37° C., 5% CO2 and DIC images were acquired with the Zeiss Observer Z1 inverted microscope every 5 s for 20 min under a 20× objective lens using Zen software. The random movement (Displacement and velocity) of the cells was automatically tracked and analyzed using TrackMate plugin of ImageJ software. An individual trace was assigned to each of the analyzed cells.

| SMILES | WASp ubiquitylation (WASp) | migration (WAS−/− Jurkat T-cells) |
| --- | --- | --- |
| CC(C)C[C@@H](C=O)NC(=O)[C@H](CC(C)C)NC(=O)[C@H](CC(C)C)NC(=O)OCc1ccccc1 [MG132] (Cbz-Leu-Leu-Leu-aldehyde) | more intense |  |
| CC1CCCC(C)N1C(=O)CSc1nnc(COc2cccc3cccnc23)o1 (centres unmarked) [SMC #34, 1-(2,6-dimethylpiperidin-1-yl)-2-[[5-(quinolin-8-yloxymethyl)-1,3,4-oxadiazol-2-yl]sulfanyl]ethanone] |  | completely restored the migration |
